The text below walks through data of BindingDB's records for doi:10.1021/jm051222g (Uppsala University, 2006).

This test addresses Type-2 angiotensin II receptor (Sus scrofa). Kind of test: Displacement of [125I]Ang2 from AT2 receptor in pig uterus myometrium. For orientation: In a radioligand displacement assay an active substance lowers the binding of a labelled ligand.

One may read the Ki as a measure of affinity in units of concentration, obtained from inhibition or displacement. Read a high Ki as a looser hold on the target. Regarding `CC[C@H](C)[C@@H]1Nc2c(Cc3ccc(O)cc3)cc(NC(=O)[C@H](CCCN=C(N)N)NC(=O)[C@@H](N)CC(=O)O)cc2CN(CC(=O)N[C@@H](Cc2cnc[nH]2)C(=O)N2CCC[C@H]2C(=O)N[C@@H](Cc2ccccc2)C(=O)O)C1=O` [(3S)-3-amino-3-{[(1S)-1-{[(2S)-2-[(2S)-butan-2-yl]-4-({[(2S)-1-[(2S)-2-{[(1S)-1-carboxy-2-phenylethyl]carbamoyl}pyrrolidin-1-yl]-3-(1H-imidazol-4-yl)-1-oxopropan-2-yl]carbamoyl}methyl)-9-[(4-hydroxyphenyl)methyl]-3-oxo-2,3,4,5-tetrahydro-1H-1,4-benzodiazepin-7-yl]carbamoyl}-4-[(diaminomethylidene)amino]butyl]carbamoyl}propanoic acid], affinity was put at a Ki of 4.7 nM. The value for `CC[C@H](C)[C@@H]1Nc2c(Cc3ccc(O)cc3)cc(NC(=O)[C@H](CCCN=C(N)N)NC(=O)[C@@H](N)CC(=O)O)cc2CN(CC(=O)N2CCC[C@H]2C(=O)N[C@@H](Cc2ccccc2)C(=O)O)C1=O` [(3S)-3-amino-3-{[(1S)-1-{[(2S)-2-[(2S)-butan-2-yl]-4-{2-[(2S)-2-{[(1S)-1-carboxy-2-phenylethyl]carbamoyl}pyrrolidin-1-yl]-2-oxoethyl}-9-[(4-hydroxyphenyl)methyl]-3-oxo-2,3,4,5-tetrahydro-1H-1,4-benzodiazepin-7-yl]carbamoyl}-4-[(diaminomethylidene)amino]butyl]carbamoyl}propanoic acid] was 53.1 nM.
